Hypoglycemic activity, ED50 and Basal uptake data for 27 molecules are collected here from ChEMBL document CHEMBL1129417, “Glucose transport-enhancing and hypoglycemic activity of 2-methyl-2-phenoxy-3-phenylpropanoic acids” (1996).

Common to all, as to assay type: functional
In assay [1] the test system is Mus musculus. The experiment in a line: compound was tested in vivo for hypoglycemic activity in 6-8 week old C57BL/6J ob/ob mouse at 10 mg/kg.
The species entered for assay [2] is Rattus norvegicus. The experiment in a line: Compound was tested for inhibition of gluconeogenesis.
The species entered for assay [3] is Rattus norvegicus. The experiment in a line: Inhibition of gluconeogenesis in rat.
Assay [4] has as its system Mus musculus. The experiment in a line: compound was tested in vivo for hypoglycemic activity expressed as Glucose lowering relative to positive control in 6-8 week old C57BL/6J ob/ob mouse at 50 mg/kg.
Assay [5] concerns 3T3-L1. The experiment in a line: In vitro measurements 2-Deoxyglucose (2DG) uptake in vehicle treated 3T3-L1 adipocytes at 100 uM dose.
The subject of assay [6] is 3T3-L1. The experiment in a line: Acute effects in vitro by measuring 2-deoxyglucose (2DG) uptake in vehicle treated 3T3-L1 adipocytes at 10 uM dose.
Assay [7] concerns 3T3-L1. The experiment in a line: compound was evaluated for their acute effects in vitro by measuring 2-Deoxyglucose (2DG) uptake in vehicle treated 3T3-L1 adipocytes at 1 uM dose.
Assay [8] relates to 3T3-L1. The experiment in a line: In vitro by measurements of 2-Deoxyglucose (2DG) uptake in vehicle treated 3T3-L1 adipocytes at 3 uM dose.
Assay [9] relates to Mus musculus. The experiment in a line: In vivo hypoglycemic activity expressed as glucose lowering relative to positive control in 6-8 week old C57BL/6J ob/ob mouse at 10 mg/kg.
Assay [10] concerns 3T3-L1. The experiment in a line: Acute effects in vitro by measuring 2-deoxyglucose (2DG) uptake in vehicle treated 3T3-L1 adipocytes at 30 uM dose.
Assay [11] has as its system 3T3-L1. The experiment in a line: In vitro measurements of 2-Deoxyglucose (2DG) uptake in vehicle treated 3T3-L1 adipocytes at 60 uM dose.
The next assay relates to L6. The experiment in a line: compound was evaluated for their acute effects in vitro by measuring 2-Deoxyglucose (2DG) uptake in vehicle treated L6 […] at 60 uM dose.
For assay [12], the system named is Mus musculus. The experiment in a line: In vivo hypoglycemic activity expressed as glucose lowering relative to positive control in 6-8 week old C57BL/6J ob/ob mouse at 5 mg/kg.
Assay [13] deals with Mus musculus. The experiment in a line: In vivo hypoglycemic activity expressed as glucose lowering relative to positive control in 6-8 week old C57BL/6J ob/ob mouse at 1 mg/kg.
The mark [14] stands for this setting: Rattus norvegicus, read-out: ED50.

The structures appear in SMILES notation.

In the case of `CCc1cccc(CC(C)(Oc2ccc(C(C)C)cc2)C(=O)[N-]S(=O)(=O)C(F)(F)F)c1.[Na+]` (stereo unspecified), the Hypoglycemic activity in the assay on Mus musculus [1] is 43%. Also, in the assay filed under Rattus norvegicus [2] (setting [14]), the ED50 is more than 10 mg/kg.

On to `COc1ccc(CC(Oc2ccc(C(C)C)cc2)C(=O)O)cc1` (stereo unspecified), for which the median effective dose (ED50) in the assay filed under Rattus norvegicus [3] (setting [14]) was more than 50 mg/kg. Besides, the Hypoglycemic activity with Mus musculus [4] is reported as less than 0%. Further, the Basal uptake with 3T3-L1 [5] is on record as 127%.

For `CC(C)c1ccc(OC(Cc2ccc3ccccc3c2)C(=O)O)cc1` (stereo unspecified), in the assay listed under Rattus norvegicus [3] (setting [14]), the ED50 is 50 mg/kg. Moreover, the Hypoglycemic activity in the assay with Mus musculus [4] was determined as 45%. The molecule also yielded a Basal uptake in the assay with 3T3-L1 [5] of 143%.

With `CC(C)c1ccc(OC(C)(Cc2ccccc2-c2ccccc2)C(=O)[O-])cc1.[Na+]` (stereo unspecified), the ED50 in the assay listed under Rattus norvegicus [3] (setting [14]) came to 10 mg/kg. Also, the Basal uptake in the assay on 3T3-L1 [6] is recorded as 228%; in the assay with 3T3-L1 [7] it was 97%; in the assay with 3T3-L1 [8], 148%; in the assay with 3T3-L1 [10], 167%. Also, the Hypoglycemic activity with Mus musculus [9] turned out to be 54%.

Turning to `CC(C)c1ccc(OC(C(=O)O)c2ccc(Cl)cc2)cc1` (stereo unspecified), the ED50 in the assay listed under Rattus norvegicus [3] (setting [14]) was more than 50 mg/kg. Further, in the assay on Mus musculus [4], the Hypoglycemic activity is recorded as less than 0%. Besides, the Basal uptake in the assay with 3T3-L1 [5] was found to be 248%.

As to `CC(C)c1ccc(CC(C)(Cc2ccc(Cl)cc2)C(=O)O)cc1` (stereo unspecified), the Hypoglycemic activity in the assay with Mus musculus [1] turned out to be 20%. Further, the ED50 in the assay listed under Rattus norvegicus [2] (setting [14]) was more than 10 mg/kg.

As for `CC(Cc1ccc(Cl)cc1)(Oc1ccc(C2CCSc3ccccc32)cc1)C(=O)[O-].[Na+]` (stereo unspecified), the ED50 in the assay listed under Rattus norvegicus [3] (setting [14]) was 10 mg/kg. Also, the Basal uptake in the assay with 3T3-L1 [6] amounted to 118%; in the assay on 3T3-L1 [7], 98%; in the assay with 3T3-L1 [8], 130%; in the assay on 3T3-L1 [10], 157%. For the same molecule, the Hypoglycemic activity in the assay with Mus musculus [9] was 38%.

On to `CC(C)c1ccc(OC(C)(Cc2ccc(Cl)cc2)C(=O)NS(=O)(=O)C(F)(F)F)cc1` (stereo unspecified), for which the ED50 in the assay listed under Rattus norvegicus [3] (setting [14]) came out at 5 mg/kg. Also, the Basal uptake was 232% in the assay on 3T3-L1 [6]; 108% with 3T3-L1 [7]; 79% with 3T3-L1 [11]; 130% in the assay with 3T3-L1 [8]; 273% in the assay on 3T3-L1 [10].

As to `Cc1ccc(S(=O)(=O)C(Cc2ccc(Cl)cc2)C(=O)O)cc1` (stereo unspecified), the median effective dose (ED50) in the assay listed under Rattus norvegicus [3] (setting [14]) was more than 50 mg/kg. This molecule came in with a Basal uptake with 3T3-L1 [11] of 89%. In addition, the Hypoglycemic activity in the assay with Mus musculus [4] was less than 0%.

Take `CC(C)c1ccc(OC(C)(Cc2ccc(C(F)(F)F)cc2)C(=O)O)cc1` (stereo unspecified): the ED50 in the assay listed under Rattus norvegicus [3] (setting [14]) was less than 5 mg/kg. For the same molecule, the Basal uptake with L6 came out at 103%. Moreover, in the assay on Mus musculus [12], the Hypoglycemic activity is 65%.

`CCCc1cccc(CC(C)(Oc2ccc(C(C)C)cc2)C(=O)[O-])c1.[Na+]` (stereo unspecified): the median effective dose (ED50) in the assay listed under Rattus norvegicus [3] (setting [14]) is 1 mg/kg. In addition, the Hypoglycemic activity was found to be 47% in the assay with Mus musculus [13], 82% in the assay with Mus musculus [12] and 123% with Mus musculus [9]. Further, the Basal uptake with 3T3-L1 [6] was determined as 128%; with 3T3-L1 [7], 123%; in the assay with 3T3-L1 [8], 136%; with 3T3-L1 [10], 229%.

With `CC(C)c1ccc2c(c1)CC(Cc1ccc(Cl)cc1)(C(=O)O)O2` (stereo unspecified), the ED50 in the assay filed under Rattus norvegicus [3] (setting [14]) was more than 50 mg/kg. The Basal uptake in the assay on 3T3-L1 [11] is 66%. In the assay on Mus musculus [4], the Hypoglycemic activity is on record as less than 0%.

For the molecule `CC(C)c1ccc(OC(C)(C(=O)NS(=O)(=O)C(F)(F)F)C(C)c2ccc(Cl)cc2)cc1` (stereo unspecified), in the assay listed under Rattus norvegicus [3] (setting [14]), the ED50 was more than 10 mg/kg. For the same molecule, the Basal uptake with 3T3-L1 [6] is reported as 248%; in the assay on 3T3-L1 [7], 94%; in the assay on 3T3-L1 [10], 113%. Further, the Hypoglycemic activity in the assay on Mus musculus [9] turned out to be 7%.

For `Cc1ccc(CC(C)(Oc2ccc(C(C)C)cc2)C(=O)[O-])cc1.[Na+]` (stereo unspecified), in the assay listed under Rattus norvegicus [3] (setting [14]), the ED50 is less than 1 mg/kg. In addition, the values for the Hypoglycemic activity with Mus musculus [13], with Mus musculus [12] and with Mus musculus [9] were 58%, 100% and 106%, respectively. In addition, in the assay on 3T3-L1 [5], the Basal uptake stood at 92%.

Turning to `Cc1cccc(CC(C)(Oc2ccc(C(C)C)cc2)C(=O)[O-])c1.[Na+]` (stereo unspecified), in the assay filed under Rattus norvegicus [3] (setting [14]), the median effective dose (ED50) is less than 1 mg/kg. The results for the Hypoglycemic activity in the assay with Mus musculus [13], in the assay on Mus musculus [12] and in the assay on Mus musculus [9] were 63%, 83% and 83%, respectively. The Basal uptake in the assay on 3T3-L1 [6] turned out to be 98%; in the assay on 3T3-L1 [8], 93%; in the assay with 3T3-L1 [10] it was 84%.

For `CC(C)c1ccc(OC(Cc2ccc(Cl)cc2Cl)C(=O)O)cc1` (stereo unspecified), the ED50 in the assay listed under Rattus norvegicus [3] (setting [14]) was found to be 10 mg/kg. In addition, the Hypoglycemic activity was 45% in the assay on Mus musculus [12], 30% in the assay on Mus musculus [9] and 70% in the assay on Mus musculus [4]. The Basal uptake in the assay with 3T3-L1 [5] is listed as 222%.

With `CC(C)c1ccc(OC(Cc2ccc(Br)cc2)C(=O)O)cc1` (stereo unspecified), in the assay filed under Rattus norvegicus [3] (setting [14]), the ED50 was 10 mg/kg. Further, the Hypoglycemic activity in the assay on Mus musculus [9] is less than 0%; in the assay with Mus musculus [4] it was 122%. In addition, in the assay on 3T3-L1 [5], the Basal uptake was determined as 203%.

Take `CCCCc1ccc(CC(C)(Oc2ccc(C(C)C)cc2)C(=O)[O-])cc1.[Na+]` (stereo unspecified): in the assay listed under Rattus norvegicus [3] (setting [14]), the median effective dose (ED50) came to 1 mg/kg. Further, the Hypoglycemic activity in the assay with Mus musculus [13] is 17%; in the assay on Mus musculus [12], 92%; with Mus musculus [9] it was 130%. The Basal uptake in the assay with 3T3-L1 [6] is 94%; with 3T3-L1 [8] it was 82%; in the assay on 3T3-L1 [10] it was 200%.

Take `CCC(Cc1ccc(Cl)cc1)(Oc1ccc(C(C)C)cc1)C(=O)[O-].[Na+]` (stereo unspecified): in the assay listed under Rattus norvegicus [3] (setting [14]), the median effective dose (ED50) was more than 5 mg/kg. Besides, the Hypoglycemic activity in the assay on Mus musculus [12] is recorded as 36%. In the assay on 3T3-L1 [5], this molecule registered a Basal uptake of 156%.

Turning to `CC(C)c1ccc2c(c1)C(c1ccc(Cl)cc1)C(C(=O)O)O2` (stereo unspecified), in the assay listed under Rattus norvegicus [3] (setting [14]), the ED50 was more than 50 mg/kg. Further, the Basal uptake in the assay with 3T3-L1 [11] is 89%. In addition, in the assay with Mus musculus [4], the Hypoglycemic activity is recorded as 25%.

As to `CC(C)c1ccc2c(c1)CCC(Cc1ccc(Cl)cc1)(C(=O)O)O2` (stereo unspecified), the median effective dose (ED50) in the assay listed under Rattus norvegicus [3] (setting [14]) is 5 mg/kg. The Hypoglycemic activity in the assay on Mus musculus [12] is listed as less than 0%; in the assay on Mus musculus [4] it was 119%. Also, the Basal uptake stood at 82% in the assay with 3T3-L1 [6], 114% in the assay on 3T3-L1 [11] and 80% with 3T3-L1 [10].

Take `Cc1ccccc1S(=O)(=O)[N-]CC(C)(Cc1ccc(Cl)cc1)Oc1ccc(C(C)C)cc1.[Na+]` (stereo unspecified): the Hypoglycemic activity in the assay on Mus musculus [1] was determined as 7%. Also, the ED50 in the assay listed under Rattus norvegicus [2] (setting [14]) was found to be 10 mg/kg.

With `CCC(c1ccc(Cl)cc1)C(C)(Oc1ccc(C(C)C)cc1)C(=O)O` (stereo in doubt; 86), the ED50 in the assay listed under Rattus norvegicus [3] (setting [14]) is less than 10 mg/kg. For the same molecule, the values for the Basal uptake in the assay on 3T3-L1 [6], with 3T3-L1 [7] and in the assay on 3T3-L1 [10] were 91%, 97% and 95%, respectively. Moreover, in the assay on Mus musculus [9] (10 mg/kg), the Hypoglycemic activity came to 71%.

In turn, `CCC(c1ccc(Cl)cc1)C(C)(Oc1ccc(C(C)C)cc1)C(=O)O` (stereo in doubt; 87) yielded an ED50 in the assay filed under Rattus norvegicus [3] of more than 10 mg/kg. Besides, the Basal uptake with 3T3-L1 [6] was 96%; with 3T3-L1 [7], 98%; in the assay on 3T3-L1 [10], 109%. Also, in the assay on Mus musculus [9] (10 mg/kg), the Hypoglycemic activity came to 32%.

For the molecule `CC(C)c1ccc(C(F)C(C)(Cc2ccc(Cl)cc2)C(=O)O)cc1` (stereo in doubt; 94), the Hypoglycemic activity in the assay with Mus musculus [1] (10 mg/kg) is given as 63%. Besides, in the assay listed under Rattus norvegicus [2], the ED50 amounted to 10 mg/kg.

In the case of `CC(C)c1ccc(C(F)C(C)(Cc2ccc(Cl)cc2)C(=O)O)cc1` (stereo in doubt; 95), in the assay with Mus musculus [1] (10 mg/kg), the Hypoglycemic activity came to 50%. Also, the ED50 in the assay listed under Rattus norvegicus [2] (setting [14]) was determined as 10 mg/kg.

`CC(C)c1ccc(OC(C)(C(=O)O)C2CCc3cc(Cl)ccc32)cc1` (stereo in doubt; 100) registered a median effective dose (ED50) in the assay filed under Rattus norvegicus [3] of 1 mg/kg. Also, the Hypoglycemic activity in the assay with Mus musculus [13] was 14%; in the assay with Mus musculus [12], 78%; in the assay on Mus musculus [9] (10 mg/kg), 105%. Besides, the Basal uptake in the assay with 3T3-L1 [6] was 83%; in the assay with 3T3-L1 [8], 85%; with 3T3-L1 [10], 89%.
